For one experiment, the system named is K. pneumoniae. Kind of experiment: spectrum of activity, bacterial growth. It counts as cell-based. To be noted: 50 μg/ml, 6 h. The method, then:
(§1) Bacterial growth was monitored for 6 h in medium alone or supplemented with 50 μg/ml of L-161, 982. Data shown is representative of three independent experiments.
(§2) Strains and growth conditions. The methicillin-resistant S. aureus strain NRS383 used in all experiments was obtained from the Network on Antimicrobial Resistance in S. aureus (NARSA) data bank. NRS383 is positive for the toxic shock syndrome toxin (tst) and 6-toxin genes. SJ-MRSA 6 and SJ-SA5 are methicillin-resistant (MRSA) and methicillin-sensitive (MSSA) clinical S. aureus strains respectively isolated from a patient's catheter. Other bacterial species used in this study include Escherichia coli (ATCC 25922, clinical isolate), S. epidermidis (ATCC 12228), Klebsiella pneumonia (ATCC 43816), Enterococcus faecalis (ATCC 51299, clinical isolate), and Streptococcus mutans (UA159, 12). S. mutans strain was maintained in brain heart infusion (BHI) broth while the other bacterial species were maintained in Luria-Bertani broth. Frozen stocks were obtained at −80° C. and streaked onto agar plates at 37° C. prior to use. A single colony was transferred to 10 ml of culture broth and shaken at 37° C. overnight. On the following day, the overnight culture was diluted 1:100 in fresh growth medium and shaken at 37° C. for 3 h to obtain cells in mid-log growth phase. S. mutans cultures were grown without agitation in the presence of 5% CO2.
(§3) The spectrum of activity of L-161, 982 was investigated by testing several Gram-positive and Gram-negative bacteria.

The next experiment has as its system Streptococcus mutans. Kind of experiment: spectrum of activity, bacterial growth. It counts as cell-based. To be noted: 50 μg/ml, 6 h. The method, then: as §1, §2, §3
In another experiment the test system is S. epidermidis. Put plainly: spectrum of activity, bacterial growth. The experiment is classed as cell-based. To be noted: 50 μg/ml, 6 h. The procedure: as §1, §2, §3
The subject of another experiment is E. faecium. Put plainly: spectrum of activity, bacterial growth. It counts as cell-based. To be noted: 50 μg/ml, 6 h. The method, then: as §1, §2, §3
The next experiment relates to MRSA. Kind of experiment: checkerboard broth microdilution synergy test with oxacillin. It counts as cell-based, Staphylococcus aureus. To be noted: combination with oxacillin. The procedure: Due to the newfound antimicrobial activity of L-161, 982 against S. aureus, the checkerboard method (14) with the broth microdilution method, was used to test for synergy with oxacillin, a drug similar to methicillin used more commonly in the clinical setting. Synergy was determined using the fractional inhibitory concentration index (FICI) method (14, 15). With this method, the MIC of the antibiotic compound in combination is divided by the MIC of the compound alone, giving the fractional contribution of each drug component in combination. Quotients for all compounds in combination are summed and drug interactions scored using the formula:
FICI=((MIC AcombA+B)/MICA)+((MIC BcombA+B)/MICB)
The stock solutions and serial twofold dilutions of oxacillin ranged from 8× the MIC to 32× below the MIC and that of L-161, 982 ranged from 8× the MIC to 2000× below the MIC. Oxacillin was serially diluted along the ordinate, while L-161, 982 was diluted along the abscissa. The resulting checkerboard contained each combination of two drugs, with wells that contain the highest concentration of each antibiotic at opposite corners. Each microtiter well was inoculated with 1×10^5 CFU. The plates were incubated at 37° C. for 24 h and the OD600 measured using a microplate spectrophotometer. […]

The next experiment relates to S. aureus strain NRS383. Kind of experiment: effect of exogenous thymidine on antibacterial activity. The experiment is classed as cell-based, Staphylococcus aureus. The settings on record: 50 μg/ml, 200 μg/ml thymidine. The method, then:
S. aureus strain NRS383 was grown in cation-adjusted Mueller-Hinton II broth alone (control), with 50 μg/ml of L-161, 982 or with 40 μg/ml of SXT (positive control)±200 μg/ml of thymidine. Cultures were incubated at 37° C. non-shaking and aliquots were removed at various time points and cultured for growth (CFU). Results are expressed as % of control at each time point. Mean values from two independent experiments are shown.
Effect of exogenous thymidine on antibacterial activity of L-161, 982. S. aureus was cultured to mid-log phase in cation-adjusted Mueller-Hinton II broth with shaking at 37° C. Cultures were further diluted to yield a final concentration of 5×10^5 cells/ml. and treated with drugs alone or in combination with 200 μg/ml of thymidine (Sigma). Drugs were L-161, 982 (50 μg/ml) or 40 μg/ml of trimethoprim-sulfamethoxazole (SXT) at a ratio of 1:19 (2 μg/ml of trimethoprim and 38 μg/ml of sulfamethoxazole; Sigma) as a positive control. Cultures were incubated at 37° C. without shaking and aliquots were removed at t(0), 2, 4, 6, and 24 hours. CFUs were enumerated by plating various dilutions on TSA plates and incubating at 37° C. for 24 hours. Results were normalized to negative control cultures containing no drug at each time point.

A further experiment concerns S. aureus strain 43300. Kind of experiment: hemolysis assay. The experiment is classed as cell-based, Staphylococcus aureus. The procedure:
(A) Macroscopic analysis of S. aureus hemolytic activity. S. aureus was spotted on Mueller-Hinton agar containing sheep blood and/or various concentrations of L-161, 982, and incubated at 37 C for 24 h (0, 25 50, 100) or 72 h (200). (B) Width of the zone of RBC clearance was measured at 4 points around each S. aureus area of growth in 2 independent replicates. * p<0.05 control vs. drug-treated.
Strains and growth conditions. The methicillin-resistant S. aureus strain NRS383 was obtained from the Network on Antimicrobial Resistance in S. aureus (NARSA) data bank. As NRS383 has little or no hemolytic activity or pigmentation, S. aureus strain 43300 (ATCC) was used for the hemolysis and staphyloxanthin assays. Frozen stocks were obtained at −80° C. and streaked onto trypticase soy agar (TSA) plates at 37° C. prior to use. A single colony was transferred to 10 ml of trypticase soy broth (TSB) and shaken at 37° C. overnight. […]
Hemolysis Assay. Hemolytic activity was measured using Mueller-Hinton agar plates containing 5% defribinated sheep blood (Thermo Fisher)+/−L-161, 982 at a final concentration of 50 μg/ml. […] Plates were placed on a light box and digitally photographed and images were analyzed using Photoshop CS3. […] The width of each zone was measured at 0, 90, 180, 270° around growth spots (2-3 spots/group) using the ruler tool. […]

Structures are written as SMILES. Entries after “also recorded” stand apart in the source; their conditions may differ.

Consider `CCCCc1nn(-c2ccccc2C(F)(F)F)c(=O)n1Cc1ccc(-c2ccccc2S(=O)(=O)NC(=O)c2sccc2C)cc1` [L-161, 982, N-[[4′-[[3-Butyl-1,5-dihydro-5-oxo-1-[2-(trifluoromethyl)phenyl]-4H-1,2,4-triazol-4-yl]methyl][1,1′-biphenyl]-2-yl]sulfonyl]-3-methyl-2-thiophenecarboxamide], for which the growth inhibitory activity result is “No inhibitory effects” in the experiment with K. pneumoniae; “restricted to Gram-positive bacteria that included S. epidermidis and Streptococcus mutans” in the experiment on Streptococcus mutans; “restricted to Gram-positive bacteria that included S. epidermidis and Streptococcus mutans” in the experiment with S. epidermidis; “No inhibitory effects” in the experiment on E. faecium. Besides, the “fractional inhibitory concentration (FIC) index” value with MRSA worked out at 0.563. In addition, the “effect of exogenous thymidine on growth inhibition” value in the experiment on S. aureus strain NRS383 was “did not reverse; also recorded: no effect”. For the same compound, the “hemolytic activity, zones of clearance on blood agar” value in the experiment on S. aureus strain 43300 is reported as “significantly reduced zones of clearance”.

(Values after US20200352912A1, “ANTIMICROBIAL COMPOSITIONS AND METHODS OF USING THE SAME” (The Board Of Supervisors Of Louisiana State University And …, priority 2018, published 2020).)
